Measured values published in patent US9938258B2 (Karyopharm Therapeutics Inc., priority 2012, dated 2018).
Counter-ions that a name gives are not always drawn. Like-named read-outs stand apart in the source and are kept apart here.

Experiments:
3T3 cells = assay: MTT cell proliferation assay, 3T3; assay type: cell-based, mouse; settings: Mus musculus
Outline: (§1)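 Read-out: MTT reduction to formazan, solubilised and measured at 490 nm after ~4 h with MTT; inhibition (%) = (1-(ODo/OD))×100 relative to negative control. Seeding was 5,000-10,000 cells/well with overnight attachment. Eight test concentrations spanned 1 nM-30 μM; mostly duplicate, mean ± SE.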

SNU-182 cell line = assay: MTT cell proliferation assay, SNU-182; assay type: cell-based; settings: Homo sapiens, incubation approximately 64-72 hours
Experimental: (§2) The MTT cell proliferation assay was used to study the cytotoxic properties of the compounds. The assay was performed according to the method described by Roche Molecular Biochemicals, with minor modifications. The assay is based on the cleavage of the tetrazolium salt, MTT, in the presence of an electron-coupling reagent. The water-insoluble formazan salt produced must be solubilized in an additional step. Cells grown in a 96-well tissue culture plate were incubated with the MTT solution for approximately 4 hours. After this incubation period, a water-insoluble formazan dye formed. After solubilization, the formazan dye was quantitated using a scanning multi-well spectrophotometer (ELISA reader). […] The cells were seeded at 5,000-10,000 cells in each well of 96-well plate in 100 μL of fresh culture medium and were allowed to attach overnight. The stock solutions of the compounds were diluted in 100 μL cell culture medium to obtain eight concentrations of each test compound, ranging from 1 nM to 30 μM. […] All optical densities were measured at 490 nm using a Vmax Kinetic Microplate Reader (Molecular Devices). In most cases, the assay was performed in duplicate and the results were presented as a mean percent inhibition to the negative control±SE. The following formula was used to calculate the percent of inhibition: Inhibition (%)=(1-(ODo/OD)) ×100. […]

HEP 3B cells = assay: MTT cell proliferation assay, HEP 3B; assay type: cell-based; settings: Homo sapiens, Hep3B, incubation approximately 64-72 hours
Experimental: (§3) The MTT cell proliferation assay was used to study the cytotoxic properties of the compounds. The assay was performed according to the method described by Roche Molecular Biochemicals, with minor modifications. The assay is based on the cleavage of the tetrazolium salt, MTT, in the presence of an electron-coupling reagent. The water-insoluble formazan salt produced must be solubilized in an additional step. Cells grown in a 96-well tissue culture plate were incubated with the MTT solution for approximately 4 hours. After this incubation period, a water-insoluble formazan dye formed. After solubilization, the formazan dye was quantitated using a scanning multi-well spectrophotometer (ELISA reader). […] The cells were seeded at 5,000-10,000 cells in each well of 96-well plate in 100 μL of fresh culture medium and were allowed to attach overnight. The stock solutions of the compounds were diluted in 100 μL cell culture medium to obtain eight concentrations of each test compound, ranging from 1 nM to 30 μM. […] All optical densities were measured at 490 nm using a Vmax Kinetic Microplate Reader (Molecular Devices). In most cases, the assay was performed in duplicate and the results were presented as a mean percent inhibition to the negative control±SE. The following formula was used to calculate the percent of inhibition: Inhibition (%)=(1-(ODo/OD)) ×100.
(§4) The M24 cell line is derived from human melanoma cells. The U2OS cell line is a human osteosarcoma cell line expressing wild type p53 and Rb, but lacking p16. The MM1S cell line is a multiple myeloma cell line; the parent cell line, MM.1, was established from peripheral blood of a multiple myeloma patient who had become resistant to steroid-based therapy. The RPMI8226 cell line is derived from human B lymphocyte cells. NHDF cells are normal human dermal fibroblast cells. The MRC-5 cell line is derived from normal lung tissue of a fetus. The LN18 cell line is a human malignant glioma cell line. The DU-145 cell line is a human prostate cancer cell line. A549 cells are human adenocarcinomic human alveolar basal epithelial cells. […]

MS751 cells = assay: MTT cell proliferation assay, MS751; assay type: cell-based, human; settings: Homo sapiens
Outline: as §1

Hep G2 cells = assay: MTT cell proliferation assay, Hep G2; assay type: cell-based; settings: Homo sapiens, HepG2, incubation approximately 64-72 hours
Experimental: as §3
The M24 cell line is derived from human melanoma cells. The U2OS cell line is a human osteosarcoma cell line expressing wild type p53 and Rb, but lacking p16. The MM1S cell line is a multiple myeloma cell line; the parent cell line, MM.1, was established from peripheral blood of a multiple myeloma patient who had become resistant to steroid-based therapy. The RPMI8226 cell line is derived from human B lymphocyte cells. NHDF cells are normal human dermal fibroblast cells. The MRC-5 cell line is derived from normal lung tissue of a fetus. The LN18 cell line is a human malignant glioma cell line. The DU-145 cell line is a human prostate cancer cell line. A549 cells are human adenocarcinomic human alveolar basal epithelial cells. The MOLT4 cell line is a human acute lymphoblastic leukemia cell line. The THP1 cell line is a human leukemic monocytic cell line derived from peripheral blood. The OCIAML5 cell line is a human acute myeloid leukemia cell line. The MDA-MB-231 cell line is a human breast adenocarcinoma cell line. The MDA-MB-468 cell line is a human breast carcinoma cell line. HL-60 cells are human promyelocytic leukemia cells. Hep G2 cells are human hepatocellular carcinoma cells. HEP 3B cells are human hepatocellular carcinoma cells. The DLD-1 cell line is a colorectal adenocarcinoma cell line. The HCT-15 cell line is a human colon carcinoma cell line. The Colo-205 cell line is derived from a human adenocarcinoma of the colon. […]

Z138 cells = assay: MTT cell proliferation assay, Z138; assay type: cell-based; settings: Homo sapiens
Outline: as §1

[1] = tested on: PAK4 interactors and downstream proteins; assay: Immunoblots of PAK4 interactors and downstream proteins in U2OS cells; assay type: cell-based, human; settings: 72 hours
Experimental: Immunoblots were used to measure the effects of exemplary compounds on protein steady-state levels and phophorylation of PAK4 interactor and downstream proteins. Specifically, U2OS (osteosarcoma) cells were split and plated on day 1. After overnight attachment to the tissue culture plate, cells were treated with either DMSO (0), 37 nM, 111 nM, 333 nM, 1 μM, or 3 μM Compound 246 for 72 hours. Cells were collected, washed and lysed in RIPA buffer. After obtaining the protein concentration by BCA assay, lysates were boiled in loading buffer and run on SDS-PAGE. The gels were transferred to nitrocellulose membranes and blotted with antibodies raised against phosphor-PAK4, PAK4, phophos-beta-catenin, beta-catenin, GEF-H1, phospho-Akt, Akt, phospho-ERK1/2, ERK1/2, phospho-cofilin, cofilin, phospho-histone H3, histone H3, cyclin D1, Mcl-1, Bcl-2, p21, survivin, caspase 8, caspase 3, PARP, and beta-actin (loading control).
In another experiment, U2OS (osteosarcoma) cells were split and plated on day 1. After overnight attachment to the tissue culture plate, cells were treated with DMSO (Ct), 0.5 μM, or 5 μM of Compound 124, 369, 226, 246, or 907 for 72 hours. Cells were collected, washed and lysed in RIPA buffer. After obtaining the protein concentration by BCA assay, lysates were boiled in loading buffer and run on SDS-PAGE. The gels were transferred to nitrocellulose membranes and blotted with antibodies raised against phophos-beta-catenin, cyclin D1, PAK4, phospho-cofilin, and beta-actin (loading control).

UCH-2 cell line = assay: MTT cell proliferation assay, UCH-2; assay type: cell-based; settings: UCH2, incubation approximately 64-72 hours
Experimental: as §2

MM1S cell line = assay: MTT cell proliferation assay, MM1S; assay type: cell-based; settings: Homo sapiens, MM1.S, incubation approximately 64-72 hours
Experimental: as §3, §4

M24 cell line = assay: MTT cell proliferation assay, M24; assay type: cell-based; settings: Homo sapiens, incubation approximately 64-72 hours
Experimental: as §2

RPMI8226 cell line = assay: MTT cell proliferation assay, RPMI8226; assay type: cell-based; settings: Homo sapiens, RPMI-8226, incubation approximately 64-72 hours
Experimental: as §2

U2OS cell line = assay: MTT cell proliferation assay, U2OS; assay type: cell-based; settings: Homo sapiens, incubation approximately 64-72 hours
Experimental: as §2

NHDF cells = assay: MTT cell proliferation assay, NHDF; assay type: cell-based; settings: Homo sapiens, incubation approximately 64-72 hours
Experimental: as §2

HL-60 cells = assay: MTT cell proliferation assay, HL-60; assay type: cell-based; settings: Homo sapiens, incubation approximately 64-72 hours
Experimental: as §2

Nc1ccc(/C=C/C(=O)NCC2Cc3cc(-c4ccc(C(=O)N5CC(F)(F)C5)cc4)cc(Cl)c3O2)cn1 (stereo not shown) [Compound 226, (E)-3-(6-aminopyridin-3-yl)-N-((7-chloro-5-(4-(3,3-difluoroazetidine-1-carbonyl)phenyl)-2,3-dihydrobenzofuran-2-yl)methyl)acrylamide]
IC50 (3T3 cells; NIH3T3, 3T3 cells, approximately 64-72 hours incubation, read-out: MTT Assay IC50, 3T3): 5000 to 30000 nM | IC50 (SNU-182 cell line): < 100 nM | IC50 (HEP 3B cells): < 100 nM | IC50 (MS751 cells; MS751, MS751 cells, approximately 64-72 hours incubation, read-out: MTT Assay IC50, MS751): < 100 nM | IC50 (Hep G2 cells): < 100 nM | IC50 (Z138 cells; Z-138, Z138 cells, approximately 64-72 hours incubation, read-out: MTT Assay IC50, Z138): < 100 nM | PAK4 total protein ([1]; 0.5 μM or 5 μM): decrease | phosphorylation of PAK4 signaling proteins beta-catenin and cofilin ([1]; 0.5 μM or 5 μM): decreases in phosphorylation | IC50 (UCH-2 cell line): > 30000 nM

Nc1ccc(/C=C/C(=O)NCC2Cc3cc(-c4ccc(C(=O)N5CCNCC5)cc4)cc(Cl)c3O2)cn1 (stereo not shown) [Compound 246, (E)-3-(6-aminopyridin-3-yl)-N-((7-chloro-5-(4-(piperazine-1-carbonyl)phenyl)-2,3-dihydrobenzofuran-2-yl)methyl)acrylamide dihydrochloride]
IC50 (3T3 cells; NIH3T3, read-out: MTT Assay IC50, 3T3): 100 to 5000 nM | IC50 (MM1S cell line): < 100 nM | IC50 (M24 cell line): 100 to 5000 nM | IC50 (RPMI8226 cell line): 100 to 5000 nM | IC50 (HEP 3B cells): < 100 nM | IC50 (U2OS cell line): < 100 nM | IC50 (NHDF cells): 100 to 5000 nM | IC50 (MS751 cells; MS751, read-out: MTT Assay IC50, MS751): < 100 nM | IC50 (Hep G2 cells): 100 to 5000 nM | IC50 (Z138 cells; Z-138, read-out: MTT Assay IC50, Z138): < 100 nM | IC50 (HL-60 cells): 100 to 5000 nM | PAK4 total protein ([1]; 37 nM to 3 μM): decrease | cleavage of apoptosis markers caspase 3, caspase 8 and PARP ([1]; 37 nM to 3 μM): increases in cleavage | phosphorylation or total level of PAK4 signaling proteins (Akt, ERK1/2, beta-catenin, cofilin, p21, cyclin D1) ([1]; 37 nM to 3 μM): decrease in phosphorylation or the total level | PAK4 total protein ([1]; 0.5 μM or 5 μM): decrease | phosphorylation of PAK4 signaling proteins beta-catenin and cofilin ([1]; 0.5 μM or 5 μM): decreases in phosphorylation
